Results from ChEMBL document CHEMBL1909046, “DrugMatrix in vitro pharmacology data”.

Assays:
Calcitonin receptor = molecular target: T1, Calcitonin receptor (Homo sapiens, UniProt P30988); assay type: cell membranes, Membrane; conditions: t47d; also: in other assays of this panel Not Active means under 50% inhibition at 10 µM
T1 sequence (P30988 whole entry): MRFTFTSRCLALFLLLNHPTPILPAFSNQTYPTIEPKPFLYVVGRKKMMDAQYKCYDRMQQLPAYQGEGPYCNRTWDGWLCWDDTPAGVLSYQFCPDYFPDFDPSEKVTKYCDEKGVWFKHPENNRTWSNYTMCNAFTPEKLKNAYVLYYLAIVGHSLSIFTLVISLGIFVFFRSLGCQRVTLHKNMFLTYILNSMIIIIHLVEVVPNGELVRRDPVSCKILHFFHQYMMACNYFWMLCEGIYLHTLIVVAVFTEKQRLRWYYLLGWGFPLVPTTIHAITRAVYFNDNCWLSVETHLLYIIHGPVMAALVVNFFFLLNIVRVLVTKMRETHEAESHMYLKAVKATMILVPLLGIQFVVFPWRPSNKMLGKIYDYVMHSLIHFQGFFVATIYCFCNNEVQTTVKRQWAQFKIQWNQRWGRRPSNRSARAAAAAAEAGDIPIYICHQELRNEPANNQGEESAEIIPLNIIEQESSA

[1] = DRUGMATRIX: ATPase, Na+/K+ enzyme inhibition (substrate: ATP); assay type: tissue-based, Sus scrofa, Heart; conditions: Not Active = under 50% inhibition at 10 µM
[2] = DRUGMATRIX: Purinergic P2X radioligand binding (ligand: [3H] alpha, beta-Methylene-ATP); assay type: cell membranes, Oryctolagus cuniculus, New Zealand albino, Urinary bladder, Membrane; conditions: Not Active = under 50% inhibition at 10 µM
[3] = molecular target: T2, Receptor-type tyrosine-protein phosphatase C (Homo sapiens, UniProt P08575); parameters: species or system Escherichia coli;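 also: inhibition of CD45 enzyme activity measured using DiFMUP as substrate; in other assays of this panel Not Active means under 50% inhibition at 10 µM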
T2 sequence (P08575 whole entry): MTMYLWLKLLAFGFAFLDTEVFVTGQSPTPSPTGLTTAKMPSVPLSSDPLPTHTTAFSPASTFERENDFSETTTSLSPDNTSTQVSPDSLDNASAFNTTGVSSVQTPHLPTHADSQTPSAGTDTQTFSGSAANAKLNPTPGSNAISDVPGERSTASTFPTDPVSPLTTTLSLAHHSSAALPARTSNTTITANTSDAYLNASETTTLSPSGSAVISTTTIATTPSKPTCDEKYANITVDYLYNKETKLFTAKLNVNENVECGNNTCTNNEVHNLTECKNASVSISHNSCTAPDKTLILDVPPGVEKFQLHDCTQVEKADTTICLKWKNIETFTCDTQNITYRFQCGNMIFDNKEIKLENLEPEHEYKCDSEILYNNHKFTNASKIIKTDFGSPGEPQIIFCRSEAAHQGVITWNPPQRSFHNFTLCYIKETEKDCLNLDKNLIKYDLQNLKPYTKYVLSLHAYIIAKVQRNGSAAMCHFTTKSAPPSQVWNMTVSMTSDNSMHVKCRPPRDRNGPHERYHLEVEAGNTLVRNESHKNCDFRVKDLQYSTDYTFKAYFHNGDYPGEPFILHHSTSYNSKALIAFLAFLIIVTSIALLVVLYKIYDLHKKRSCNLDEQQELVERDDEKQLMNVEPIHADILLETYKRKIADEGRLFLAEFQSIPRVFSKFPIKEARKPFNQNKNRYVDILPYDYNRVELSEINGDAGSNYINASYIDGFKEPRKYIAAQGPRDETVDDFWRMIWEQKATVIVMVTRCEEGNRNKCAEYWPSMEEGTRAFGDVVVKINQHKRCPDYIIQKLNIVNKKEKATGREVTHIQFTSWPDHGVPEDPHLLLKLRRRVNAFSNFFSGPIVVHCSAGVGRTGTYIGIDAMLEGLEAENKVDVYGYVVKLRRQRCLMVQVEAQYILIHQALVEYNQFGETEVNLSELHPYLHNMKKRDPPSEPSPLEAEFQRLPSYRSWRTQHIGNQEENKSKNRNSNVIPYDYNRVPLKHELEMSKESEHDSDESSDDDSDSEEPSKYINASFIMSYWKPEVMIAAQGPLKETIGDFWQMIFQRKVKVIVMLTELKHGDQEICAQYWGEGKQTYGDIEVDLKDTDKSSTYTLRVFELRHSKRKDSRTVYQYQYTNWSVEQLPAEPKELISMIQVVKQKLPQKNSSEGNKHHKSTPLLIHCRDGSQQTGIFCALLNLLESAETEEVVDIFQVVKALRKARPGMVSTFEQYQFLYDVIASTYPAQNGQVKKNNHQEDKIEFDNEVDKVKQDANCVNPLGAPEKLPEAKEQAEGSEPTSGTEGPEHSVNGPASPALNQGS

Cytochrome P450 2C9 = Cytochrome P450 2C9 (Homo sapiens, UniProt P11712); conditions: bti-tn-5b1-4; also: in other assays of this panel Not Active means under 50% inhibition at 10 µM
Sequence of Cytochrome P450 2C9 (P11712 whole entry): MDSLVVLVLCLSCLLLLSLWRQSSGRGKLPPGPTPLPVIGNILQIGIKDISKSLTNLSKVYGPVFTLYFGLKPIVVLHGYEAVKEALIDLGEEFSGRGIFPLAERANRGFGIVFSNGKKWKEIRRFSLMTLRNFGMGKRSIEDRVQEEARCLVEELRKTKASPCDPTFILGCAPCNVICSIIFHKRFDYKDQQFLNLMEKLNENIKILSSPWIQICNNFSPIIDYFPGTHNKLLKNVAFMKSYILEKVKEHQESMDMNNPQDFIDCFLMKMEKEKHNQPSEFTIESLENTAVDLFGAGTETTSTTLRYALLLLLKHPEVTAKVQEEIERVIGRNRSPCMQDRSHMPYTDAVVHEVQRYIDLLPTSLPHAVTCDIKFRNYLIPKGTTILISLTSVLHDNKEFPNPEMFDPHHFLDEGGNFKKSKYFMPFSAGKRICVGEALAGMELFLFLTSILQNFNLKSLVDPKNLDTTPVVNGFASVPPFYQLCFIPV

[4] = DRUGMATRIX: Calcium Channel Type L, Benzothiazepine radioligand binding (ligand: [3H] Diltiazem); assay type: cell membranes, Rattus norvegicus, Wistar, Brain, Membrane; conditions: Not Active = under 50% inhibition at 10 µM
[5] = molecular target: C-C chemokine receptor type 5 (Homo sapiens, UniProt P51681); assay type: cell membranes, Membrane; conditions: hek293; also: in other assays of this panel Not Active means under 50% inhibition at 10 µM
Sequence of C-C chemokine receptor type 5 (P51681 whole entry): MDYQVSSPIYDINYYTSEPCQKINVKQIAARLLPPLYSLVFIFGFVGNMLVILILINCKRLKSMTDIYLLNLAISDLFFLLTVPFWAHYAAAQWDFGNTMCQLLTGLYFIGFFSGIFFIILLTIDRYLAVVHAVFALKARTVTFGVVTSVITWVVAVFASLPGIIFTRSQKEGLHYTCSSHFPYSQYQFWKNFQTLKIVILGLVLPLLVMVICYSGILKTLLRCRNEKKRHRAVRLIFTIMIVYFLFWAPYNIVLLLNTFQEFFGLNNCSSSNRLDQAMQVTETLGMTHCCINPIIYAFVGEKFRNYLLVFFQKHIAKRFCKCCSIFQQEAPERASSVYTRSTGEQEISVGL

Leukotriene C4 synthase = molecular target: T3, Leukotriene C4 synthase (Cavia porcellus, UniProt A6XA80); assay type: tissue-based, Lung
T3 sequence (A6XA80 whole entry): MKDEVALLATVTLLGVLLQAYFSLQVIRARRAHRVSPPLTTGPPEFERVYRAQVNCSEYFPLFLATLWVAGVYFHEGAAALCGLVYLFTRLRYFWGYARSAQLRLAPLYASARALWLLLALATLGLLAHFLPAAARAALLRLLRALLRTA

CCC1(c2ccc(N)cc2)CCC(=O)NC1=O (stereo unspecified) [AMINOGLUTETHIMIDE]
Not Active: IC50 (Calcitonin receptor) | IC50 [1] | Ki [1] | IC50 [2] | Ki [2] | IC50 [3] | IC50 (Cytochrome P450 2C9) | Ki (Cytochrome P450 2C9) | IC50 [4] | Ki [4] | IC50 [5] | IC50 (Leukotriene C4 synthase)

Cc1ccc(/N=C/N(C)/C=N/c2ccc(C)cc2C)c(C)c1 [AMITRAZ]
Not Active: IC50 (Calcitonin receptor) | IC50 [1] | Ki [1] | IC50 [2] | Ki [2] | IC50 [3] | IC50 (Cytochrome P450 2C9) | Ki (Cytochrome P450 2C9) | IC50 [4] | Ki [4] | IC50 [5] | IC50 (Leukotriene C4 synthase)

C[C@H](CS)C(=O)N1CCC[C@H]1C(=O)O [CAPTOPRIL]
Not Active: IC50 (Calcitonin receptor) | IC50 [1] | Ki [1] | IC50 [2] | Ki [2] | IC50 [3] | IC50 (Cytochrome P450 2C9) | Ki (Cytochrome P450 2C9) | IC50 [4] | Ki [4] | IC50 [5] | IC50 (Leukotriene C4 synthase)

Clc1cccc(Cl)c1NC1=NCCN1 [CLONIDINE]
Not Active: IC50 (Calcitonin receptor) | IC50 [1] | Ki [1] | IC50 [2] | Ki [2] | IC50 [3] | IC50 (Cytochrome P450 2C9) | Ki (Cytochrome P450 2C9) | IC50 [4] | Ki [4] | IC50 [5] | IC50 (Leukotriene C4 synthase)

CCCCN1CCCC[C@H]1C(=O)Nc1c(C)cccc1C [LEVOBUPIVACAINE]
Not Active: IC50 (Calcitonin receptor) | IC50 [1] | Ki [1] | IC50 [2] | Ki [2] | IC50 [3] | IC50 (Cytochrome P450 2C9) | Ki (Cytochrome P450 2C9) | IC50 [4] | Ki [4] | IC50 [5] | IC50 (Leukotriene C4 synthase)

OC(Cn1cncn1)(Cn1cncn1)c1ccc(F)cc1F [FLUCONAZOLE]
Not Active: IC50 (Calcitonin receptor) | IC50 [1] | Ki [1] | IC50 [2] | Ki [2] | IC50 [3] | IC50 (Cytochrome P450 2C9) | Ki (Cytochrome P450 2C9) | IC50 [4] | Ki [4] | IC50 [5] | IC50 (Leukotriene C4 synthase)

CCCC1O[C@@H]2C[C@H]3[C@@H]4CCC5=CC(=O)C=C[C@]5(C)[C@H]4[C@@H](O)C[C@]3(C)[C@]2(C(=O)CO)O1 (stereo partly specified) [BUDESONIDE]
Not Active: IC50 (Calcitonin receptor) | IC50 [1] | Ki [1] | IC50 [2] | Ki [2] | IC50 [3] | IC50 (Cytochrome P450 2C9) | Ki (Cytochrome P450 2C9) | IC50 [4] | Ki [4] | IC50 [5] | IC50 (Leukotriene C4 synthase)

Cc1cc(C2CCCCC2)n(O)c(=O)c1 [CICLOPIROX]
Not Active: IC50 (Calcitonin receptor) | IC50 [1] | Ki [1] | IC50 [2] | Ki [2] | IC50 [3] | IC50 (Cytochrome P450 2C9) | Ki (Cytochrome P450 2C9) | IC50 [4] | Ki [4] | IC50 [5] | IC50 (Leukotriene C4 synthase)
